In paper PMC6115017, “High-content imaging assay to evaluate Toxoplasma gondii infection and proliferation: A multiparametric assay to screen new compounds” (PLoS ONE, 2018):
Read-outs that look alike come from different tables or passages of the source.

How the values were obtained:
[1] = system: T. gondii proliferation (RH-YFP2 parasites in HFF); assay: High Content Imaging (HCI) assay of T. gondii proliferation in HFF; settings: for inhibition at 10 µM / IC50 / inhibition at 20 µM: Toxoplasma gondii; for SI selectivity index: CV50/IC50: CV50 (HFF)/IC50 (T. gondii); for Parasite proliferation inhibition (PPI): tested at 10 μM, HFF infected with T. gondii, normalised to DMSO and 20 μM pyrimethamine
Experimental: The parasites were collected just after host cell lysis, centrifuged at 800 g for 5 min, suspended in D10 medium, and counted.
A pyrimethamine (Sigma-Aldrich) stock solution was prepared at 10 mM in DMSO and was used at the final concentration of at 20 μM as a positive control for anti-Toxoplasma activity. Forty-six molecules were tested to determine their anti-Toxoplasma activity. Each molecule was prepared as a 10 mM stock solution in DMSO and tested at 10 μM. The hits were then further tested at the dilutions 0.01 to 100 μM.
(§1) Cells were seeded at a density of 1.10^4 cells per well into 96-well plates, and allowed to grow for 48 h at 37°C and 5% CO2 to obtain sub-confluent HFF monolayers. Cells were then infected with 4.10^4 parasites per well. The plates were centrifuged for 1 min at 200 g and placed at 37°C, 5% CO2, for 2 h. After 3 washes in PBS, infected cells were incubated at 37°C, 5% CO2, for 30 hours with 200 μL of DMEM complete medium alone or supplemented with anti-Toxoplasma molecules, i.e. the reference drug pyrimethamine, or the tested molecules. These tested drugs were incubated at 10 μM in screening hit assays.
Imaging of 96-well plates was performed using a high content imaging system (Olympus ScanR). […] Twenty fields per well were imaged.
The acquired images were analyzed using the ScanR analysis software. This analysis aimed to identify the parasitophorous vacuoles (V), the parasites’ nuclei (P) and host cells’ nuclei (C).
A fixed threshold was set up (Fig 1C) and a watershed algorithm was applied to split apart two vacuoles that associated with one another (Fig 1C, white arrow). A binary mask was obtained (Fig 1D) and objects on the image border were excluded. Segmentation of the parasites’ nuclei (Fig 1E–1G, arrowhead) was performed with the Hoechst fluorescence pixels (Fig 1E). In order to properly separate parasites’ nuclei one from another, an important rolling ball background subtraction filter was applied (5 pixels). Both the brightness and the contrast of filtered images were adjusted manually. Parasites were selected with an edge segmentation algorithm with a minimum object size of 10 pixels and a maximum object size of 30 pixels (Fig 1F). The obtained binary image allowed a clear detection of the parasites (Fig 1G).
The vacuole mask was merged with that of the parasites to identify parasites inside their parasitophorous vacuole and to exclude extracellular parasites or host cell nuclei (Fig 1H).

[2] = system: Human foreskin fibroblasts (HFF) host cells; assay: Host cell viability in the HCI assay (host cell nuclei count); settings: 0.037 to 81 μM, 30 h
Experimental: as §1
• the T. gondii infection rate (V/C), calculated as the ratio between the number of parasitophorous vacuoles per well (V) divided by the number of host cells per well (C); • the T. gondii proliferation index (P/V), calculated as the ratio between the number of parasites per well (P) divided by the number of parasitophorous vacuoles per well; • the intra-vacuolar distribution of parasites (percentage of parasitophorous vacuoles containing either 1, 2, 4, or 8 parasites); • the parasite proliferation inhibition (PPI), calculated with the following formula: PPI=(1−((P/V[mol]−P/V[Pyr])/(P/V[DMSO]−P/V[Pyr])))x100 where P/V[Pyr] was the average proliferation rate of Toxoplasma in the presence of 20 μM pyrimethamine, P/V[DMSO], the average proliferation rate of Toxoplasma in the presence of DMSO only and P/V[mol], the average proliferation rate of Toxoplasma in the presence of the tested molecule; • the cell viability (CV): (C [mol] / C[DMSO])x100, where C[mol] was the number of host cell nuclei per well containing the tested molecule and C[DMSO], the number of host cell nuclei per well containing the DMSO control.
A selectivity index activity (SI) was calculated as SI = CV50/IC50.

RH-YFP2 parasites in HFF = assay: [3H]-uracil incorporation assay of T. gondii proliferation; assay type: cell-based; settings: Toxoplasma gondii; 20 μM pyrimethamine, 30 h in HFF; 100% proliferation = without pyrimethamine; 3 experiments; read-out: inhibition of parasite proliferation as determined by [3H]-uracil incorporation assay
Experimental: The intracellular growth of RH-YFP2 parasites in HFF was monitored by selective incorporation of [^3H]-uracil, as previously described. […] After several washes to eliminate extracellular parasites, infected cells were cultured for 30 h with […] of [^3H]-uracil per well. Monolayers were washed 3 times in phosphate buffered saline (PBS), disrupted with 500 μL of lysis/scintillation solution (Optiphase Supermix, Perkin Elmer, France) and their radioactivity was measured by liquid scintillation counting using a Wallac MicroBeta TriLux (Perkin Elmer) calibrated for [^3H]-uracil. Two experimental replicates were performed in each of the 3 separate experiments.

[3] = system: Toxoplasma gondii parasites in HFF; assay: Manual microscopic counting of T. gondii proliferation; settings: 30 h, read-out: inhibition of parasite proliferation as determined by manual microscopic observations
Experimental: as §1
Parasitophorous vacuoles, parasites and host cells were manually counted on the set of images provided by the Olympus IX81 microscope. Three different experiments were performed.
After 30 h of parasite culture in HFF, the total numbers of parasitophorous vacuoles and parasites were counted in wells with or without 20 μM pyrimethamine from 3 different experiments. The 100% proliferation corresponds to the number of parasites per well without pyrimethamine.

[4] = 30 h, read-out: Parasite proliferation inhibition (PPI)
[5] = 30 h, read-out: IC50: concentration to inhibit 50% of T. gondii proliferation

SMILES: COc1cccc(OC)c1/C=C/C(=O)c1ccccc1 [CH4]
- inhibition at 10 µM [1, 4]: 29%

SMILES: COc1cccc(OC)c1/C=C/C(=O)c1c(OC)cccc1OC [CH1]
- inhibition at 10 µM [1, 4]: 0%

SMILES: COc1ccccc1-c1nnc(-c2ccccc2)o1 [DO6]
- inhibition at 10 µM [1, 4]: 0%

SMILES: COc1ccc(-c2nnc(-c3ccccc3)o2)c(OC)c1 [DO8]
- inhibition at 10 µM [1, 4]: 0%

SMILES: c1ccc(-c2nnc(-c3ccccc3)o2)cc1 [DO9]
- inhibition at 10 µM [1, 4]: 0%

SMILES: Oc1ccc(-c2nnc(-c3ccccc3)o2)cc1 [DO10]
- inhibition at 10 µM [1, 4]: 0%

SMILES: COc1ccc(C(=O)/C=C/c2cc(OC)c(OC)c(OC)c2)c(O)c1 [CH9]
- CV50: concentration to inhibit the viability of 50% of host cells [2]: >81 µM
- SI selectivity index: CV50/IC50 [1]: >12.3
- IC50 [1, 5]: 6600 ± 1500 nM
- inhibition at 10 µM [1, 4]: 93%
- Parasite proliferation inhibition (PPI) ([1]; 30 h): high proliferation inhibition activity

SMILES: COc1cc(/C=C/C(=O)c2ccc(OC)cc2O)cc(OC)c1 [CH12]
- inhibition at 10 µM [1, 4]: 73%

SMILES: Oc1ccccc1-c1nnc(-c2ccccc2)o1 [DO12]
- inhibition at 10 µM [1, 4]: 5%

SMILES: Oc1ccc(-c2nnc(-c3ccccc3)o2)c(O)c1 [DO11]
- inhibition at 10 µM [1, 4]: 0%

SMILES: Oc1ccc(-c2nnc(-c3ccc(O)cc3O)o2)cc1 [DO13]
- inhibition at 10 µM [1, 4]: 0%

SMILES: COc1ccc(-c2nnc(-c3ccc(OC)cc3)o2)cc1 [DO4]
- inhibition at 10 µM [1, 4]: 0%

SMILES: CCc1nc(N)nc(N)c1-c1ccc(Cl)cc1 [pyrimethamine, reference compound]
- inhibition at 20 µM (RH-YFP2 parasites in HFF): 43.2%
- CV50: concentration to inhibit the viability of 50% of host cells [2]: >81 µM
- SI selectivity index: CV50/IC50 [1]: >202
- IC50 ([1]; 24 h, read-out: IC50 of pyrimethamine, reproducibility): 600 nM
- IC50 [1, 5]: 400 ± 30 nM
- inhibition at 20 µM [1, 4]: 100%
- inhibition at 20 µM ([1]; 30 h, read-out: inhibition of parasite proliferation as determined by HCI): 25.2%
- IC50 ([1]; 72 h, read-out: IC50 of pyrimethamine, reproducibility): 440 nM
- inhibition at 20 µM [3]: 25%

SMILES: COc1ccc(C(=O)/C=C/c2ccc(OC)c(OC)c2)c(O)c1 [CH5]
- inhibition at 10 µM [1, 4]: 3%

SMILES: O=C1/C(=C/c2ccc(Br)cc2)Oc2cc(O)cc(O)c21 [AU7]
- inhibition at 10 µM [1, 4]: 0%

SMILES: Oc1ccc(-c2nnc(-c3ccc(O)cc3)o2)cc1 [DO14]
- inhibition at 10 µM [1, 4]: 0%

SMILES: COc1ccc(-c2nnc(-c3ccccc3OC)o2)cc1 [DO3]
- CV50: concentration to inhibit the viability of 50% of host cells [2]: >81 µM
- SI selectivity index: CV50/IC50 [1]: >3
- IC50 [1, 5]: 27700 ± 6200 nM
- inhibition at 10 µM [1, 4]: 81%
- Parasite proliferation inhibition (PPI) ([1]; 30 h): high proliferation inhibition activity
